Reference: the NIST ThermoML archive (doi:10.1016/j.jct.2012.05.013)
± gives the expanded uncertainty stated by the source.

Experiments:
[1] = for vapor or sublimation pressure: Liquid, Closed cell (Static) method
[2] = Molar enthalpy of transition or fusion; conditions: Crystal; DSC
[3] = molar enthalpy of vaporization or sublimation; conditions: 298.15 K; Crystal; Static calorimetry

CN(C)c1cccc2cccc(N(C)C)c12 [1,8-bis(dimethylamino)naphthalene]
vapor or sublimation pressure ([1]; 322.96 K): 0.00189 ± 0.00013 kPa
vapor or sublimation pressure ([1]; 327.93 K): 0.00285 ± 0.00016 kPa
vapor or sublimation pressure ([1]; 332.9 K): 0.00428 ± 0.0002 kPa
vapor or sublimation pressure ([1]; 337.88 K): 0.00638 ± 0.00028 kPa
vapor or sublimation pressure ([1]; 342.85 K): 0.00921 ± 0.00038 kPa
vapor or sublimation pressure ([1]; 347.82 K): 0.01325 ± 0.00052 kPa
vapor or sublimation pressure ([1]; 352.78 K): 0.01867 ± 0.0006 kPa
vapor or sublimation pressure ([1]; 357.73 K): 0.02622 ± 0.00072 kPa
vapor or sublimation pressure ([1]; 362.69 K): 0.03643 ± 0.00088 kPa
vapor or sublimation pressure ([1]; 367.65 K): 0.0494 ± 0.0011 kPa
vapor or sublimation pressure ([1]; 372.6 K): 0.06696 ± 0.0014 kPa
vapor or sublimation pressure ([1]; 377.55 K): 0.08952 ± 0.0017 kPa
vapor or sublimation pressure ([1]; 382.51 K): 0.1184 ± 0.0022 kPa
Triple point temperature ([1]; Crystal, DTA): 322.2 ± 1.8 K
Molar enthalpy of transition or fusion [2]: 4.18 ± 0.311 kcal/mol
molar enthalpy [3]: 22.4 ± 0.55 kcal/mol
